We go through 28 compounds from patent US8604019B2, “Compounds for the treatment and prophylaxis of respiratory syncytial virus disease” (Hoffman-La Roche Inc., priority 2011, dated 2013).

The term EC50 denotes the concentration giving half of the maximal effect. Low values mean a more potent agent, high ones a less potent agent.

The first test concerns RSV infection.
Experiment: not given
The conditions noted are these: intramuscularly at 15 mg/kg once a month for the duration of RSV season, selected infants; cited from earlier work.
With “palivizumab: a humanized monoclonal antibody against RSV fusion (F) protein approved for prophylaxis in high-risk infants”, the “reduction of hospitalization rate caused by RSV infection” value is 45-55%.

The next test has as its system RSV.
Experiment: not given
Conditions: Phase III clinical trials; cited from earlier work.
“motavizumab: A newer version monoclonal antibody designed as potential replacement of palivizumab”: the benefit over palivizumab result is “failed to show additional benefit over palivizumab”.

The next test deals with established RSV infection.
Experiment: not given
Conditions: in vivo; cited from earlier work.
Consider “palivizumab: a humanized monoclonal antibody against RSV fusion (F) protein approved for prophylaxis in high-risk infants”, for which the “efficacy in treatment of established RSV infection” value is reported as “not effective”.

Another test relates to RSV Long strain (ATCC, catalog number: VR-26). Put plainly: Viral cytopathic effect (CPE) assay, anti-RSV activity. It counts as cell-based. Conditions: human respiratory syncytial virus, 144 h, 6 days, cell viability by Cell Counting kit-8. The protocol:
Viral cytopathic effect (CPE) assay: To measure anti-RSV activity of compounds, 96-well plates are seeded with 6×10^3 cells per well in Dulbecco's modified Eagle's medium (DMEM) containing 10% fetal bovine serum (FBS). Cells are infected the next day with sufficient RSV Long strain (ATCC, catalog number: VR-26) to produce an approximately 80-90% cytopathic effect after 6 days, in the presence of serial half-log diluted compound in a total volume of 200 μL per well. The viability of cells is assessed after 6 days using Cell Counting kit-8 (Dojindo Molecular Technologies). The absorbance at 450 nm and referenced at 630 nm is measured to determine 50% effective concentration (EC50).
`Cc1cc2nc(N3CC[S+]([O-])c4ccccc4C3)nc(NC3CNC[C@H]3F)c2s1` (mixture of isomers) [Example 4-1, N—[trans-(±)-4-Fluoropyrrolidin-3-yl]-6-methyl-2-(1-oxido-2,3-dihydro-1,4-benzothiazepin-4(5H)-yl)thieno[3,2-d]pyrimidin-4-amine]: the EC50 stood at 0.03 µM.

On to `NCC(F)(F)CNc1nc(N2CCS(=O)(=O)c3ccccc3C2)nc2ccsc12` [Example 1-1, N-[2-(1,1-Dioxido-2,3-dihydro-1,4-benzothiazepin-4(5H)-yl)thieno[3,2-d]pyrimidin-4-yl]-2,2-difluoropropane-1,3-diamine], for which the EC50 was 0.215 µM.

As to `NCCCNc1nc(N2CC[S+]([O-])c3ccccc3C2)nc2ccsc12` (centres unmarked) [Example 1-2, N-[2-(1-Oxido-2,3-dihydro-1,4-benzothiazepin-4(5H)-yl)thieno[3,2-d]pyrimidin-4-yl]propane-1,3-diamine], a half-maximal effect (EC50) was put at 0.255 µM.

`Cc1cc2nc(N3CCNc4ccccc4C3)nc(NCCCN)c2s1` [Example 1-3, N-[6-Methyl-2-(1,2,3,5-tetrahydro-4H-1,4-benzodiazepin-4-yl)thieno[3,2-d]pyrimidin-4-yl]propane-1,3-diamine] had a concentration giving a half-maximal response (EC50) of 3.12 µM.

Compound `NCCCNc1nc(N2CCNc3ccccc3C2)nc2ccsc12` [Example 1-4, N-[2-(1,2,3,5-Tetrahydro-4H-1,4-benzodiazepin-4-yl)thieno[3,2-d]pyrimidin-4-yl]propane-1,3-diamine] showed a 50% effective concentration (EC50) of 9.47 µM.

Take `NCCCNc1nc(N2CCSc3ccccc3C2)nc2ccsc12` [Example 1-5, N-[2-(2,3-Dihydro-1,4-benzothiazepin-4(5H)-yl)thieno[3,2-d]pyrimidin-4-yl]propane-1,3-diamine]: a half-maximal effect (EC50) was put at 0.384 µM.

`NCCCNc1nc(N2CCOc3ccccc3C2)nc2ccsc12` [Example 1-6, N-[2-(2,3-Dihydro-1,4-benzoxazepin-4(5H)-yl)thieno[3,2-d]pyrimidin-4-yl]propane-1,3-diamine]: it took 2.21 µM to reach a half-maximal effect (EC50).

As to `NCCCNc1nc(N2CCC(F)(F)c3ccccc3C2)nc2ccsc12` [Example 1-7, N-[2-(5,5-Difluoro-1,3,4,5-tetrahydro-2H-2-benzazepin-2-yl)thieno[3,2-d]pyrimidin-4-yl]propane-1,3-diamine], the midpoint of the response, the EC50, lay at 0.669 µM.

As to `NCC1(CNc2nc(N3CCC(F)(F)c4ccccc4C3)nc3ccsc23)COC1` [Example 1-8, N-{[3-(Aminomethyl)oxetan-3-yl]methyl}-2-(5,5-difluoro-1,3,4,5-tetrahydro-2H-2-benzazepin-2-yl)thieno[3,2-d]pyrimidin-4-amine], the EC50 is 0.022 µM.

Turning to `NCCCNc1nc(N2CCCc3ccccc3C2)nc2ccsc12` [Example 1-9, N-[2-(1,3,4,5-Tetrahydro-2H-2-benzazepin-2-yl)thieno[3,2-d]pyrimidin-4-yl]propane-1,3-diamine], the EC50 came to 0.667 µM.

Turning to `Cc1cc2nc(N3CCSc4ccccc4C3)nc(NCCCN)c2s1` [Example 1-10, N-[2-(2,3-Dihydro-1,4-benzothiazepin-4(5H)-yl)-6-methylthieno[3,2-d]pyrimidin-4-yl]propane-1,3-diamine], the EC50 was 0.735 µM.

Compound `Cc1cc2nc(N3CCOc4ccccc4C3)nc(NCCCN)c2s1` [Example 1-11, N-[2-(2,3-Dihydro-1,4-benzoxazepin-4(5H)-yl)-6-methylthieno[3,2-d]pyrimidin-4-yl]propane-1,3-diamine] returned an EC50 of 1.35 µM.

On to `Cc1cc2nc(N3CCC(F)(F)c4ccccc4C3)nc(NCCCN)c2s1` [Example 1-12, N-[2-(5,5-Difluoro-1,3,4,5-tetrahydro-2H-2-benzazepin-2-yl)-6-methylthieno[3,2-d]pyrimidin-4-yl]propane-1,3-diamine], for which the EC50 was determined as 1.01 µM.

In turn, `Cc1cc2nc(N3CCCc4ccccc4C3)nc(NCCCN)c2s1` [Example 1-13, N-[6-Methyl-2-(1,3,4,5-tetrahydro-2H-2-benzazepin-2-yl)thieno[3,2-d]pyrimidin-4-yl]propane-1,3-diamine] displayed an EC50 of 1.44 µM.

`Cc1cc2nc(N3CCS(=O)(=O)c4ccccc4C3)nc(NCCCN)c2s1` [Example 1-14, N-[2-(1,1-Dioxido-2,3-dihydro-1,4-benzothiazepin-4(5H)-yl)-6-methylthieno[3,2-d]pyrimidin-4-yl]propane-1,3-diamine] yielded a half-maximal effective concentration (EC50) of 0.073 µM.

The compound `NCCCNc1nc(N2CCS(=O)(=O)c3ccccc3C2)nc2ccsc12` [Example 1-15, N-[2-(1,1-Dioxido-2,3-dihydro-1,4-benzothiazepin-4(5H)-yl)thieno[3,2-d]pyrimidin-4-yl]propane-1,3-diamine] came in with an EC50 of 0.076 µM.

For the compound `NC1(CNc2nc(N3CCS(=O)(=O)c4ccccc4C3)nc3ccsc23)COC1` [Example 2-1, N-[(3-Aminooxetan-3-yl)methyl]-2-(1,1-dioxido-2,3-dihydro-1,4-benzothiazepin-4(5H)-yl)thieno[3,2-d]pyrimidin-4-amine], the EC50 was 0.007 µM.

`NCC1(Nc2nc(N3CCS(=O)(=O)c4ccccc4C3)nc3ccsc23)COC1` [Example 2-2, N-[3-(aminomethyl)oxetan-3-yl]-2-(1,1-dioxido-2,3-dihydro-1,4-benzothiazepin-4(5H)-yl)thieno[3,2-d]pyrimidin-4-amine] yielded a concentration giving a half-maximal response (EC50) of 0.897 µM.

Compound `NC1(CNc2nc(N3CC[S@@+]([O-])c4ccccc4C3)nc3ccsc23)COC1` [Example 2-3, N-[(3-Aminooxetan-3-yl)methyl]-2-[(1R)-1-oxido-2,3-dihydro-1,4-benzothiazepin-4(5H)-yl]thieno[3,2-d]pyrimidin-4-amine] came in with an EC50 of 0.068 µM.

`NC1(CNc2nc(N3CC[S@+]([O-])c4ccccc4C3)nc3ccsc23)COC1` [Example 2-4, N-[(3-aminooxetan-3-yl)methyl]-2-[(1S)-1-oxido-2,3-dihydro-1,4-benzothiazepin-4(5H)-yl]thieno[3,2-d]pyrimidin-4-amine] displayed an EC50 of 0.003 µM.

For `Cc1cc2nc(N3CC[S+]([O-])c4ccccc4C3)nc(NCC3(N)COC3)c2s1` (centres unmarked) [Example 3-1, N-[(3-Aminooxetan-3-yl)methyl]-6-methyl-2-(1-oxido-2,3-dihydro-1,4-benzothiazepin-4(5H)-yl)thieno[3,2-d]pyrimidin-4-amine], the midpoint of the response, the EC50, lay at 0.026 µM.

Regarding `Cc1cc2nc(N3CC[S+]([O-])c4ccccc4C3)nc(NCC(F)CN)c2s1` (centres unmarked) [Example 3-2, 2-Fluoro-N-[6-methyl-2-(1-oxido-2,3-dihydro-1,4-benzothiazepin-4(5H)-yl)thieno[3,2-d]pyrimidin-4-yl]propane-1,3-diamine], the half-maximal effective concentration (EC50) is 0.468 µM.

Regarding `Cc1cc2nc(N3CC[S+]([O-])c4ccccc4C3)nc(NCCN)c2s1` (centres unmarked) [Example 3-3, N-[6-Methyl-2-(1-oxido-2,3-dihydro-1,4-benzothiazepin-4(5H)-yl)thieno[3,2-d]pyrimidin-4-yl]ethane-1,2-diamine], the EC50 was found to be 0.086 µM.

The compound `Cc1cc2nc(N3CC[S+]([O-])c4ccccc4C3)nc(NCC3(CN)COC3)c2s1` (centres unmarked) [Example 3-4, N-{[3-(Aminomethyl)oxetan-3-yl]methyl}-6-methyl-2-(1-oxido-2,3-dihydro-1,4-benzothiazepin-4(5H)-yl)thieno[3,2-d]pyrimidin-4-amine] registered an EC50 of 0.006 µM.

Turning to `Cc1cc2nc(N3CC[S+]([O-])c4ccccc4C3)nc(NCCCN)c2s1` (centres unmarked) [Example 3-5, N-[6-Methyl-2-(1-oxido-2,3-dihydro-1,4-benzothiazepin-4(5H)-yl)thieno[3,2-d]pyrimidin-4-yl]propane-1,3-diamine], a half-maximal effect (EC50) was put at 0.232 µM.

In the case of `Cc1cc2nc(N3CC[S+]([O-])c4ccccc4C3)nc(NC3CCNC3)c2s1` (centres unmarked) [Example 4-2, 6-Methyl-2-(1-oxido-2,3-dihydro-1,4-benzothiazepin-4(5H)-yl)-N-(pyrrolidin-3-yl)thieno[3,2-d]pyrimidin-4-amine], the EC50 was found to be 0.676 µM.
